Earlier results on one compound are cited in patent US7759361B2, “Azabicyclooctan-3-one derivatives and use thereof” (Aprea AB, priority 2004, dated 2010).

The data set has as its system cells carrying mutant p53. Particulars: disclosed in WO 02/24692.

As to `O=C1C2CCN(CC2)C1(CO)CO` [PRIMA-1, 2,2-bis(hydroxymethyl)-1-azabicyclo[2.2.2]octan-3-one], the induction of apoptosis entry is given as “able to induce apoptosis”.
